Assay results as given in article PMC9794768, “Molecular mechanism of substrate recognition by folate transporter SLC19A1” (Cell Discovery, 2022).
Each block holds one molecule with its values, some of them ahead of it.

Legend:
[1] = target: T1, SLC19A1 (Homo sapiens, UniProt P41440); test: [3H]-MTX uptake competition in HEK293F cells at […]; FSEC-based thermostability in detergent lysate; type: cell-based; design: GFP-tagged SLC19A1
T1 sequence (P41440 1-591): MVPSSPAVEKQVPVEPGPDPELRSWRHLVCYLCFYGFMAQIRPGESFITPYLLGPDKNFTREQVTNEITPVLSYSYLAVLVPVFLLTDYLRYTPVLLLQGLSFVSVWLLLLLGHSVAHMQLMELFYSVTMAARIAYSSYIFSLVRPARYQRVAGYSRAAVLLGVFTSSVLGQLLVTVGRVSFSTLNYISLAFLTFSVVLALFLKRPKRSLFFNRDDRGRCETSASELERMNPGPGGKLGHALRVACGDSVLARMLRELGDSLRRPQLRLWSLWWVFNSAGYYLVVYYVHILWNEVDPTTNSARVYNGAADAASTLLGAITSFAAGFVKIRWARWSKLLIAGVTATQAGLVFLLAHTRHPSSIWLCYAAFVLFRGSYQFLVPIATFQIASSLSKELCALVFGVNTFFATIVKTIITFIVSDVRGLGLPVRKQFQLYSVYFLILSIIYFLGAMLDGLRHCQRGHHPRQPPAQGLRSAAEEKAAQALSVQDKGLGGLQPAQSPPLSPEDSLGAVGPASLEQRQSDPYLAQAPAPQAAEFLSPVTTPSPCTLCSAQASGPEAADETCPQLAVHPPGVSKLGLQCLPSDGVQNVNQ

[2] = target: T1, SLC19A1; test: cryo-EM structure at […] Å and MST; also [3H]-MTX uptake inhibition (IC50 […]) and FSEC thermostability; type: binding; design: full-length SLC19A1 (MST); BRIL-SLC19A1/Fab/Nb (cryo-EM)
[3] = target: T1, SLC19A1; test: FSEC-based thermostability in detergent lysate; [3H]-MTX uptake competition in HEK293F cells at […]; type: cell-based; design: GFP-tagged SLC19A1

SMILES: Cc1ncc(C[n+]2csc(CCOP(=O)(O)O)c2C)c(N)n1 [TMP, Thiamine monophosphate]
[3H]-MTX uptake competition in HEK293F cells at 200 μM; FSEC-based thermostabili [1]: TMP effectively competed with [^3H]-MTX in the transporter assay and enhanced the thermostability of SLC19A1

Kd [2]: 327 ± 76 µM
SMILES: Cc1ncc(C[n+]2csc(CCO[P@](=O)(O)OP(=O)(O)O)c2C)c(N)n1 [TPP, thiamine pyrophosphate]

SMILES: Nc1nc(=O)c2nc(CNc3ccc(C(=O)N[C@@H](CCC(=O)O)C(=O)O)cc3)cnc2[nH]1 [folate]
FSEC-based thermostability in detergent lysate; [3H]-MTX uptake competition in H [3]: the well-documented substrates 5-MTHF and folate significantly enhanced the thermostability of SLC19A1
